PMC9000336, “Development of Bicyclo[3.1.0]hexane-Based A3 Receptor Ligands: Closing the Gaps in the Structure–Affinity Relationships” (Molecules, 2022)

Each molecule was assayed against T1, human adenosine A2A receptor (Homo sapiens, UniProt P29274) (assay: Radioligand displacement assay, human adenosine A2A receptor ([3H]ZM241385, HEK293hA2AR membranes)). Settings: footnote a: tested at 1 µM; n = 3; read-out: A2A Ki (bound, footnote a).
T1 construct: expressed in transfected cells; host or cells: HEK293 cells (HEK293hA2AR), from Dr. J. Wang (Biogen/IDEC); membrane preparation
T1 sequence (P29274 whole entry): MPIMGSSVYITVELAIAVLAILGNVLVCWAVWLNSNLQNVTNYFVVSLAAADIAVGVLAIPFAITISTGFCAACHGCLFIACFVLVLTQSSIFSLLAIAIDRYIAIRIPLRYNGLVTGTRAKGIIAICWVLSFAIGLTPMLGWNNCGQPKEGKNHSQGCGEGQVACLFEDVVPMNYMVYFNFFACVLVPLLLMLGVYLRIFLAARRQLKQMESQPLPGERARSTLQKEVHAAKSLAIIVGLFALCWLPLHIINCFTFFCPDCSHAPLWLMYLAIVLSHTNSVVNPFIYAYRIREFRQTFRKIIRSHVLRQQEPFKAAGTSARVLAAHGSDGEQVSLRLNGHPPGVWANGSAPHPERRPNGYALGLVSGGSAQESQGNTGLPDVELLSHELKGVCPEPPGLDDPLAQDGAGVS
Type: binding
Procedure: Human embryonic kidney 293 cells stably expressing the human adenosine A2A receptor (HEK293hA2AR) were kindly provided by Dr. J. Wang (Biogen/IDEC, Cambridge, MA, USA), CHO-spap cells stably expressing the wild-type (WT) hA2B receptor (CHO-spap-hA2BR) were kindly provided by S. J. Dowell (GlaxoSmithKline, Brentfort, UK).
All cells were grown to 80–90% confluency and detached from plates by scraping them into 5 mL phosphate-buffered saline. Detached cells were collected and centrifuged at 200 g for 5 min. Pellets derived from 100 15 cm Ø plates were pooled and resuspended in 70 mL of ice-cold 50 mM tris(hydroxymethyl)aminomethane (Tris)-HCl buffer, pH 7.4. A Heidolph Diax 900 homogenizer was used to homogenize the cell suspension. Membranes and the cytosolic fraction were separated by centrifugation at 100,000 g in a Beckman Optima LE-80 K ultracentrifuge (Beckman Coulter, Fullerton, CA, USA) at 4 °C for 20 min. The pellet was resuspended in 35 mL of the Tris-HCl buffer, and the homogenization and centrifugation steps were repeated. Tris-HCl buffer (25 mL) was used to resuspend the pellet, and adenosine deaminase (ADA) was added (0.8 U/mL) to break down endogenous adenosine. Membranes were stored in 250 µL and 500 µL aliquots at −80 °C. Total protein concentrations were measured using the bicinchoninic acid (BCA) method.
(§1) Nonspecific binding was determined in the presence of 100 µM adenosine-5-N-ethyluronamide (NECA). Incubations were terminated by rapid vacuum filtration to separate the bound and free radioligand through prewetted 96-well GF/B filter plates using a PerkinElmer Filtermate-harvester (Perkin Elmer, Groningen, The Netherlands). Filters were subsequently washed 12 times with ice-cold 50 mM Tris-HCl, pH 7.4.
The plates of all four adenosine receptor assays were dried at 55 °C after which MicroscintTM-20-cocktail was added (Perkin Elmer, Groningen, The Netherlands).
All experimental data were analyzed using the non-linear regression curve fitting program GraphPad Prism 7.0 (GraphPad Software Inc., San Diego, CA, USA). IC50 values obtained from competition displacement binding data were converted into Ki values using the Cheng–Prusoff equation.

Ki [nM]	SMILES
> 1000	COC(=O)Cc1cn(C[C@@]23C[C@@H]2[C@@H](n2cnc4c(N)nc(SC)nc42)[C@H](O)[C@@H]3O)nn1 [Compound 41, Methyl 2-(1-{[(1R,2R,3S,4R,5S)-4-(6-amino-2-methylthio-9H-purin-9-yl)-2,3-dihydroxybicyclo[3.1.0]hex-1-yl]methyl}-1H-1,2,3-triazol-4-yl)acetate]
> 1000	CSc1nc(N)c2ncn([C@H]3[C@H](O)[C@H](O)[C@]4(Cn5cc(C(=O)O)nn5)C[C@H]34)c2n1 [Compound 44, 1-{[(1R,2R,3S,4R,5S)-4-(6-Amino-2-methylthio-9H-purin-9-yl)-2,3-dihydroxybicyclo[3.1.0]hex-1-yl]methyl}-1H-1,2,3-triazole-4-carboxylic acid]
> 1000	CSc1nc(N)c2ncn([C@H]3[C@H](O)[C@H](O)[C@]4(Cn5cc(CC(=O)O)nn5)C[C@H]34)c2n1 [Compound 45, 2-(1-{[(1R,2R,3S,4R,5S)-4-(6-Amino-2-methylthio-9H-purin-9-yl)-2,3-dihydroxybicyclo[3.1.0]hex-1-yl]methyl}-1H-1,2,3-triazol-4-yl)acetic acid]
> 1000	CCN(CC)CC.CSc1nc(N)c2ncn([C@H]3[C@H](O)[C@H](O)[C@]4(CNc5c(O)c(=O)c5=O)C[C@H]34)c2n1 [Compound 47, Triethylammonium 2-{[(1R,2R,3S,4R,5S)-4-(6-Amino-2-methylthio-9H-purin-9-yl)-2,3-dihydroxybicyclo[3.1.0]hex-1-yl]methyl}amino-3,4-dioxocyclobut-1-en-1-olate]
> 1000	CCN(CC)CC.CSc1nc(N)c2ncn([C@H]3[C@H](O)[C@H](O)[C@]4(CNS(=O)(=O)CC(=O)O)C[C@H]34)c2n1 [Compound 48, Triethylammonium 2-(N-{[(1R,2R,3S,4R,5S)-4-(6-amino-2-methylthio-9H-purin-9-yl)-2,3-dihydroxybicyclo[3.1.0]hex-1-yl]methyl}sulfamoyl)acetate]

SMILES	Ki [nM]
CSc1nc(N)c2ncn([C@H]3[C@H](O)[C@H](O)[C@]4(Cn5cc(CCC(=O)O)nn5)C[C@H]34)c2n1 [Compound 46]	> 1000

Same assay, conditions: n = 3; [3H]ZM241385; read-out: A2A Ki ± SEM

Ki [nM]	SMILES
> 10000	OC[C@@]12C[C@@H]1[C@@H](n1cnc3c(N(Cc4ccccc4)Cc4ccccc4)nc(Cl)nc31)[C@H](O)[C@@H]2O [Compound 27, (1R,2R,3S,4R,5S)-4-[6-(Dibenzylamino)-2-chloro-9H-purin-9-yl]-1-(hydroxymethyl)bicyclo[3.1.0]hexane-2,3-diol]
> 10000	CSc1nc(N(Cc2ccccc2)Cc2ccccc2)c2ncn([C@H]3[C@H](O)[C@H](O)[C@]4(CCl)C[C@H]34)c2n1 [Compound 31, (1S,2R,3S,4R,5S)-4-[6-(Dibenzylamino)-2-methylthio-9H-purin-9-yl]-1-(chloromethyl)bicyclo[3.1.0]hexane-2,3-diol]
1810 ± 110	Nc1ncnc2c1ncn2[C@H]1[C@H](O)[C@H](O)[C@]2(CO)C[C@H]12 [Compound 36, (N)-methanocarba adenosine]

Same assay, conditions: relative to A3 Ki

fold lower affinity towards A2A receptor than A3 [fold]	SMILES
2	Nc1ncnc2c1ncn2[C@H]1[C@H](O)[C@H](O)[C@]2(CO)C[C@H]12 [Compound 36, (N)-methanocarba adenosine]

Same assay, conditions: test compound 10 µM; n = 3

SMILES	A2A displacement at 10 µM [%]
Nc1cc(Cl)c2ncn([C@H]3[C@H](O)[C@H](O)[C@]4(CO)C[C@H]34)c2n1 [Compound 11, (1R,2R,3S,4R,5S)-4-(5-Amino-7-chloro-3H-imidazo[4,5-b]pyridin-3-yl)-1-(hydroxymethyl)bicyclo[3.1.0]hexane-2,3-diol]	4
OC[C@@]12C[C@@H]1[C@@H](n1cnc3c(NCc4ccccc4)cc(Cl)nc31)[C@H](O)[C@@H]2O [Compound 13, (1R,2R,3S,4R,5S)-4-[7-(Benzylamino)-5-chloro-3H-imidazo[4,5-b]pyridin-3-yl]-1-(hydroxymethyl)bicyclo[3.1.0]hexane-2,3-diol]	13
CSc1cc(NCc2ccccc2)c2ncn([C@H]3[C@H](O)[C@H](O)[C@]4(CO)C[C@H]34)c2n1 [Compound 14, (1R,2R,3S,4R,5S)-4-[7-(Benzylamino)-5-methylthio-3H-imidazo[4,5-b]pyridin-3-yl]-1-(hydroxymethyl)bicyclo[3.1.0]hexane-2,3-diol]	4
COc1ccc(CNc2cc(Cl)nc3c2ncn3[C@H]2[C@H](O)[C@H](O)[C@]3(CO)C[C@H]23)cc1 [Compound 15, (1R,2R,3S,4R,5S)-4-{5-Chloro-7-[(4-methoxy)benzylamino]-3H-imidazo[4,5-b]pyridin-3-yl}-1-(hydroxymethyl)bicyclo[3.1.0]hexane-2,3-diol]	2
Nc1cc(Cl)nc2c1ncn2[C@H]1[C@H](O)[C@H](O)[C@]2(CO)C[C@H]12 [Compound 16, (1R,2R,3S,4R,5S)-4-(7-Amino-5-chloro-3H-imidazo[4,5-b]pyridin-3-yl)-1-(hydroxymethyl)bicyclo[3.1.0]hexane-2,3-diol]	42
OC[C@@]12C[C@@H]1[C@@H](n1cnc3c(N(Cc4ccccc4)Cc4ccccc4)ncnc31)[C@H](O)[C@@H]2O [Compound 26, (1R,2R,3S,4R,5S)-4-[6-(Dibenzylamino)-9H-purin-9-yl]-1-(hydroxymethyl)bicyclo[3.1.0]hexane-2,3-diol]	9
CSc1nc(N(Cc2ccccc2)Cc2ccccc2)c2ncn([C@H]3[C@H](O)[C@H](O)[C@]4(CO)C[C@H]34)c2n1 [Compound 30, (1R,2R,3S,4R,5S)-4-[6-(Dibenzylamino)-2-methylthio-9H-purin-9-yl]-1-(hydroxymethyl)bicyclo[3.1.0]hexane-2,3-diol]	13
CSc1nc(N)c2ncn([C@H]3[C@H](O)[C@H](O)[C@]4(Cn5cc(CN)nn5)C[C@H]34)c2n1 [Compound 43, (1R,2R,3S,4R,5S)-4-(6-Amino-2-methylthio-9H-purin-9-yl)-1-{[4-(aminomethyl)-1H-1,2,3-triazol-1-yl]methyl}bicyclo[3.1.0]hexane-2,3-diol]	3

Further lines, results first:

A2A displacement at 10 µM [%]	SMILES
11	CSc1nc(N)c2ncn([C@H]3[C@H](O)[C@H](O)[C@]4(Cn5cc(CO)nn5)C[C@H]34)c2n1 [Compound 39, (1R,2R,3S,4R,5S)-4-(6-Amino-2-methylthio-9H-purin-9-yl)-1-{[4-(hydroxymethyl)-1H-1,2,3-triazol-1-yl]methyl}bicyclo[3.1.0]hexane-2,3-diol]
3	COC(=O)c1cn(C[C@@]23C[C@@H]2[C@@H](n2cnc4c(N)nc(SC)nc42)[C@H](O)[C@@H]3O)nn1 [Compound 40, Methyl 1-{[(1R,2R,3S,4R,5S)-4-(6-amino-2-methylthio-9H-purin-9-yl)-2,3-dihydroxybicyclo[3.1.0]hex-1-yl]methyl}-1H-1,2,3-triazole-4-carboxylate]
29	COC(=O)CCc1cn(C[C@@]23C[C@@H]2[C@@H](n2cnc4c(N)nc(SC)nc42)[C@H](O)[C@@H]3O)nn1 [Compound 42, Methyl 3-(1-{[(1R,2R,3S,4R,5S)-4-(6-amino-2-methylthio-9H-purin-9-yl)-2,3-dihydroxybicyclo[3.1.0]hex-1-yl]methyl}-1H-1,2,3-triazol-4-yl)propanoate]

What follows are molecules tested on P1 receptor (assay: P1 receptor binding studies (A1, A2A, A2B and A3), overall statement). Settings: all four subtypes.
Parameters: species or system human
Procedure: as §1, with “A1 Receptor: Membrane aliquots containing 5 µg (CHOhA1R) protein were incubated in a total volume of 100 µL assay buffer (50 mM Tris-HCl, pH 7.4) at 25 °C for 1 h. […] Nonspecific” for “Nonspecific”, “N^6-cyclopentyladenosine (CPA).” for “adenosine-5-N-ethyluronamide (NECA).”, “the” for “The”
as §1
A2B Receptor: Membrane aliquots containing 30 µg (CHO-spap-hA2BR) total protein were incubated in a total volume of 100 µL assay buffer (0.1% CHAPS in 50 mM TrisHCl, pH 7.4) at 25 °C for 2 h. […] Nonspecific binding was determined in the presence of 10 µM ZM241385. Incubations were terminated by rapid vacuum filtration to separate the bound and free radioligand through prewetted 96-well GF/B filter plates using a PerkinElmer Filtermate-harvester (Perkin Elmer, Groningen, the Netherlands). Filters were subsequently washed 12 times with ice-cold 0.1% BSA in 50 mM Tris-HCl, pH 7.4.
A3 Receptor: Membrane aliquots containing 15 µg (CHOhA3R) total protein were incubated in a total volume of 100 µL assay buffer (50 mM Tris-HCl, pH 8.0, supplemented with 10 mM MgCl2, 1 mM EDTA and 0.01% (w/v) CHAPS) at 25 °C for 2 h. […] Nonspecific binding was determined in the presence of 100 µM NECA. […]
All experimental data were analyzed using the non-linear regression curve fitting program GraphPad Prism 7.0 (GraphPad Software Inc., San Diego, CA, USA). […]

P1 receptor affinity	SMILES
no P1 receptor affinity	Nc1cc(Cl)c2ncn([C@H]3[C@H](O)[C@H](O)[C@]4(CO)C[C@H]34)c2n1 [Compound 11, (1R,2R,3S,4R,5S)-4-(5-Amino-7-chloro-3H-imidazo[4,5-b]pyridin-3-yl)-1-(hydroxymethyl)bicyclo[3.1.0]hexane-2,3-diol]
